# Literature values in patent US20240350385A1 (priority 2023, published 2024).
# Test system: patients
# Conditions: in vivo
row,Compound,incidence of allergic contact dermatitis [%]
1,2-Octyl cyanoacrylate,2.7
2,C=C(C#N)C(=O)OCCCC [n-Butyl cyanoacrylate],2.2
